Where two headings read alike, the source gives them in different places.
Key:
[1] = tested on: Mixed di-heteromeric GluN2A-wt/GluN2A-T690A; design: method as in PMID 24607230; conditions: glutamate; ref 8; cited from earlier work
[2] = tested on: Pure variant di-heteromeric GluN2B-A639V; design: method as in PMID 35110392; conditions: glutamate; ref 10; cited from earlier work
[3] = tested on: Mixed di-heteromeric GluN2B-wt/GluN2B-E413G; design: method as in PMID 27839871; conditions: glutamate; ref 21; cited from earlier work
[4] = tested on: Mixed tri-heteromeric GluN2A-P552R/ GluN2B-wt; design: method as in PMID 35110392; conditions: glutamate; ref 10; cited from earlier work
[5] = tested on: Mixed di-heteromeric GluN2B-wt/GluN2B-H486A; design: method as in PMID 24607230; conditions: glutamate; ref 8; cited from earlier work
[6] = biological target: T1, Purely di-heteromeric GluN2B-G689C (C1/C2) (Rattus norvegicus, UniProt P35439+Q00959+Q00960, A876H/F846L/G689C/G856D/H848F/K857R/M851T/M860L/Q845K/V861L); test: TEVC in Xenopus oocytes; type: cell-based
T1 construct: expressed in transfected cells; host or cells: Xenopus laevis oocytes, mRNA injection
Text: Aliquots were thawed before each experiment.

[7] = tested on: Mixed di-heteromeric GluN2A-wt/GluN2A-D731N; design: method as in PMID 28182669; conditions: glutamate; ref 33; cited from earlier work
[8] = tested on: Mixed di-heteromeric GluN2A-wt/GluN2A-S644G; design: method as in PMID 32577763; conditions: glutamate; ref 19; cited from earlier work
[9] = tested on: Pure variant di-heteromeric GluN2A-T690A; design: method as in PMID 24607230; conditions: glutamate; ref 8; cited from earlier work
[10] = tested on: Mixed tri-heteromeric GluN2A-wt/ GluN2B-A819T; design: method as in PMID 35110392; conditions: glutamate; ref 10; cited from earlier work
[11] = tested on: Mixed di-heteromeric GluN2B-wt/GluN2B-G689C; test: TEVC in Xenopus oocytes; conditions: compared to purely di-heteromeric variant channels
Experimental: (§1) Two electrode voltage clamp (TEVC) recordings were carried out 24–72 h after mRNA injections, as previously described [17, 37]. We use a commercial amplifier (Warner Instruments, USA) and Digitizer (Digidata-1550B; Molecular Devices, USA), controlled by the pClamp10 software (Molecular Devices, USA). Electrode were made by pulling glass capillaries (Narishige, Japan) filled with 3 M KCl, into which we inserted chlorinated silver wires. […] For hERG channel recordings, oocytes were clamped at (− 60) mV for 1 s, followed by a voltage jump to 20 mV for 4 s, and an additional voltage jump to (− 50) mV for 6 s and return to baseline voltage (see Supplementary. 6f), as previously described [53].
(§2) When assessing potentiation by PS, all other solutions also included equal amounts of the DMSO carrier (0.2%).
(§3) Electrophysiology data were analyzed by Clampfit 11.2 (Molecular Devices, USA), plotted using GraphPad 8 or SigmaPlot 11(Systat software, Inc.). […] In all TEVC recordings in oocytes, the responses were normalized to current amplitude obtained from that individual cell. […] All data are shown as mean ± SEM. In all experiments N indicates the number of independent experiments, whereas n indicates the number of cells recorded. In each experiment, data underwent normality test prior to statistical assessment. Normally distributed data were assessed for significance by using paired t-test or one-way ANOVA for multiple group comparison and post hoc Tukey test or Dunnett's test. Similarly, in the case of non-normally distributed data significance was assessed by Mann Whitney test or Kruskal–Wallis ANOVA on ranks test followed by Dunn’s multiple comparison post hoc; n.s., non-significant; *p < 0.05; **p < 0.01; ***p < 0.001. […] Leak expression was evaluated by normalizing the maximal current (Imax) of each ER-retained NMDAR composition to Imax of control group (which was recorded in all experiments). Estimation of activation time constant (τ) for potentiated currents by PS, was performed by fitting PS- potentiated currents with a standard single-exponential function, from which we extracted the time constant (τ).

[12] = biological target: Mixed di-heteromeric GluN2B-wt/GluN2B-G689C (Rattus norvegicus, UniProt P35439+Q00960, G689C); test: TEVC in Xenopus oocytes; conditions: glutamate dose-response
Experimental: as §1, §2, §3

[13] = tested on: Mixed tri-heteromeric GluN2A-wt/ GluN2B-M818T; design: method as in PMID 35110392; conditions: glutamate; ref 10; cited from earlier work
[14] = tested on: Pure variant di-heteromeric GluN2A-P552R; design: method as in PMID 28095420; conditions: glutamate; di-heteromer section; cited from earlier work
[15] = tested on: wt di-heteromeric GluN2A NMDAR; conditions: glutamate, cited from earlier work
[16] = tested on: Pure variant di-heteromeric GluN2B-E413G; design: method as in PMID 27839871; conditions: glutamate; ref 21; cited from earlier work
[17] = tested on: Pure variant di-heteromeric GluN2A-H485A; design: method as in PMID 24607230; conditions: glutamate; ref 8; cited from earlier work
[18] = tested on: Mixed di-heteromeric GluN2A-wt/GluN2A-L812M; design: method as in PMID 24504326; conditions: glutamate; ref 39; cited from earlier work
[19] = tested on: Pure variant di-heteromeric GluN2B-A819T; design: method as in PMID 28377535; conditions: glutamate; ref 25; cited from earlier work
[20] = tested on: Mixed tri-heteromeric GluN2A-wt/ GluN2B-A639V; design: method as in PMID 35110392; conditions: glutamate; ref 10; cited from earlier work
[21] = tested on: Pure variant di-heteromeric GluN2A-S644G; design: method as in PMID 32577763; conditions: glutamate; di-heteromer section; cited from earlier work
[22] = tested on: Mixed tri-heteromeric GluN2A-M817V/ GluN2B-wt; design: method as in PMID 35110392; conditions: glutamate; ref 10; cited from earlier work
[23] = tested on: non-tagged purely di-heteromeric GluN2B-wt; design: method as in PMID 32168371; conditions: read-out: Glutamate EC50 (adapted from[16]); non-tagged human receptors; cited from earlier work
[24] = tested on: Pure variant di-heteromeric GluN2B-C461F; design: method as in PMID 27839871; conditions: glutamate; ref 21; cited from earlier work
[25] = tested on: Mixed tri-heteromeric GluN2A-H485A/ GluN2B-wt; design: method as in PMID 24607230; conditions: glutamate; ref 8; cited from earlier work
[26] = tested on: wt tri-heteromeric GluN2A-wt/GluN2B-wt NMDAR; conditions: glutamate, cited from earlier work
[27] = tested on: Mixed di-heteromeric GluN2A-wt/GluN2A-H485A; design: method as in PMID 24607230; conditions: glutamate; ref 8; cited from earlier work
[28] = tested on: Mixed di-heteromeric GluN2B-wt/GluN2B-C461F; design: method as in PMID 27839871; conditions: glutamate; ref 21; cited from earlier work
[29] = tested on: Pure variant di-heteromeric GluN2A-M817V; design: method as in PMID 28126851; conditions: glutamate; ref 91; cited from earlier work

T1 sequence (Q00960+Q00959 fused with the stated changes, other chains not shown): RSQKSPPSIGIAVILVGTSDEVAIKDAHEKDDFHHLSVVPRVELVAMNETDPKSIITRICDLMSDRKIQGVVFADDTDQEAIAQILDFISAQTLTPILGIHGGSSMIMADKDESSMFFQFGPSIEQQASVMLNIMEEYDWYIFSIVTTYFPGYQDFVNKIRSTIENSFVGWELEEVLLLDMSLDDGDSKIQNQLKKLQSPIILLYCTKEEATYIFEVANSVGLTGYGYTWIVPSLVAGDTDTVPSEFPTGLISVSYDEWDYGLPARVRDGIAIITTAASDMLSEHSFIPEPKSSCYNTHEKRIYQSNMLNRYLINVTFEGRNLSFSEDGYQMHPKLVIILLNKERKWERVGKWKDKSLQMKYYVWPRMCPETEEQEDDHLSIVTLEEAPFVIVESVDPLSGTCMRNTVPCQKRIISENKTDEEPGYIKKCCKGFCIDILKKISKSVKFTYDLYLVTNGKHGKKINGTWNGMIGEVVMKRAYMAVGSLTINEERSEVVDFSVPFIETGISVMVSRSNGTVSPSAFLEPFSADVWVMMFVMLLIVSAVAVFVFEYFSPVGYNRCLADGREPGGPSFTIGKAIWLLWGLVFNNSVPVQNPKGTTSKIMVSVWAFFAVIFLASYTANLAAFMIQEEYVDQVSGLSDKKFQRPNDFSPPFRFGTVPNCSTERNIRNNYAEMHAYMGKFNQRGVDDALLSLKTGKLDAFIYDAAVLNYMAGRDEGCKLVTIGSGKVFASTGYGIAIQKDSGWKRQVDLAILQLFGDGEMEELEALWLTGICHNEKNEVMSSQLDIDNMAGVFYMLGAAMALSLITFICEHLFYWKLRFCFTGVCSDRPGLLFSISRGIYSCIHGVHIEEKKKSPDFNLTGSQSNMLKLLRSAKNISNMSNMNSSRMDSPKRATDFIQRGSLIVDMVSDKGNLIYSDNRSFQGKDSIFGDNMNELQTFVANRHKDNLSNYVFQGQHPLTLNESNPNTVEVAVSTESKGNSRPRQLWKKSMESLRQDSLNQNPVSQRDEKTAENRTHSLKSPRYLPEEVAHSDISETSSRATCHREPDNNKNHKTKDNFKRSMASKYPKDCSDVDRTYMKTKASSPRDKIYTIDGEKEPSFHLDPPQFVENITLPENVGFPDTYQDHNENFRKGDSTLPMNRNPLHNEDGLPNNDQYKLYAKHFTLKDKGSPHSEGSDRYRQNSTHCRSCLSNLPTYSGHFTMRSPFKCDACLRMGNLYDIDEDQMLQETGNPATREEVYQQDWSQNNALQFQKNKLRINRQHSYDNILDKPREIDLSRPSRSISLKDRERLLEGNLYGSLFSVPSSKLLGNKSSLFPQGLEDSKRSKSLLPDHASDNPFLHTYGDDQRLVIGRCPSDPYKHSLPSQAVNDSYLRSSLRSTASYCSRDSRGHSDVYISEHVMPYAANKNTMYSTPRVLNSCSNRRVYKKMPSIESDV

## N[C@@H](CCC(=O)O)C(=O)O [Glutamate, glutamate]
[1]
  EC50: 660 µM
[2]
  EC50: 0.28 µM
[3]
  EC50: 21 µM
[4]
  EC50: 0.56 µM
[5]
  EC50: 75 µM
[6]; compared to GluN2B-wt-C1/C2 receptors
  increase in the EC50 value: ~ 2000 fold
[6]; glutamate dose-response
  Hill coefficient (nH): 2.04 ± 0.28 (N = 2, n = 13)
[7]
  EC50: 6450 µM
[8]
  EC50: 0.7 µM
[9]
  EC50: 2700 µM
[10]
  EC50: 0.71 µM
[11]
  higher (improved) glutamate potency: ~ four-fold
[12]
  Hill coefficient (nH): 0.75 ± 0.08 n.s (N = 6, n = 54)
[13]
  EC50: 0.96 µM
[14]
  EC50: 0.64 µM
[15]; ref 8
  EC50: 4.2 µM
[15]; ref 19
  EC50: 4.5 µM
[15]; ref 32
  EC50: 3.9 µM
[15]; ref 33
  EC50: 5.7 µM
[15]; ref 39
  EC50: 4 µM
[15]; ref 91
  EC50: 3.6 µM
[16]
  EC50: 82 µM
[17]
  EC50: 1060 µM
[18]
  EC50: 1 µM
[19]
  EC50: 0.58 µM
[20]
  EC50: 0.58 µM
[21]
  EC50: 0.05 µM
[22]
  EC50: 0.75 µM
[23]
  EC50: 1.4 ± 0.1 µM
[24]
  EC50: 290 µM
[25]
  EC50: 210 µM
[26]; ref 8
  EC50: 2.6 µM
[26]; ref 10
  EC50: 2.2 µM
[27]
  EC50: 220 µM
[28]
  EC50: 61 µM
[29]
  EC50: 0.47 µM

— article PMC11127902, “Rescuing tri-heteromeric NMDA receptor function: the potential of pregnenolone-sulfate in loss-of-function GRIN2B variants” (Cellular and Molecular Life Sciences: CMLS, 2024)
